The values below come from PMC4674085, “Towards Prebiotic Catalytic Amyloids Using High Throughput Screening” (PLoS ONE, 2015).

The test can be described thus: NMR-based 4NPA hydrolysis assay at pH 4.3. The format is biochemical. As to conditions: 4NPA hydrolysis by 1D-1H NMR, 50 mM d3-NaOAc pH 4.3, 2% d6-DMSO, 40 μM total purified peptide (mixture 20 μM each), 0.9 mM 4NPA, 25°C, over 15 days, first order fit, no zinc(II). The protocol: Purified peptides were solubilized in deuterated DMSO with 1% TFA at a concentration of 4 mM and subsequently diluted to 160 μM in 50 mM deuterated NaOAc buffer at pH 4.3. In the case of the peptide mixture fibrillization (12/21), each peptide was 80 μM. Fibrillization occurred over 5 days after which the sample was diluted to 40 μM total peptide in 50 mM buffer with 0.9 mM 4NPA (from a 90 mM stock solution in d6-DMSO) and a final concentration of d6-DMSO of 2%. From this reaction mixture 500 μl was transferred to a 5 mm NMR tube and measurements were performed in a 600 MHz Bruker NMR spectrometer equipped with a cryo-probe.
The hydrolysis kinetics were monitored in a continuous series of 1D-^1H experiments each consisting of 32 scans at 25°C and each requiring 17 min. In this manner, several time segments lasting between 8 and 17 hours were collected over a period of 15 days. Between measurements, the samples were kept at 25°C.
Data processing and peak integration was performed with Topspin3.2 (Bruker). Relevant peaks used for the analysis were the 4 aromatic protons of both 4NPA and of its product (p-nitrophenol) as well as the methyl groups of 4NPA and acetic acid. The ratio of the sum of integrals for the product protons to the sum of integrals for all protons was used to calculate the substrate concentration. […]

“Ac-YVHVHVDV-NH2 [Peptide 21, Ac-YVHVHVDV-CONH2]”: the “k cat/K M” value is given as 1598±20 10^-6M^-1s^-1.
